Data as given in patent publication US8846933B2, “N-link hydroxamic acid derivatives useful as antibacterial agents” (Pfizer Inc., priority 2009, dated 2014).

How the values were obtained:
[1] = tested on: Pseudomonas aeruginosa UI-18: Wild-type (PA-7); assay: MIC determination (CLSI), strain PA-7; assay type: cell-based; conditions: strain PA-7, unit assumed
Procedure, shortened: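 MIC determined by broth dilution per CLSI M7-A7 guidelines with M100-S18 interpretive standards. Test organism: wild-type Pseudomonas aeruginosa UI-18, designated PA-7.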

[2] = tested on: Escherichia coli EC-1: VOGEL, mouse virulent; assay: MIC determination (CLSI), strain EC-1; assay type: cell-based; conditions: strain EC-1, unit assumed
Procedure, shortened: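 The mouse-virulent VOGEL isolate of E. coli, EC-1, served as test organism. Minimum inhibitory concentration was measured by CLSI dilution methodology (M7-A7; M100-S18 standards).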

[3] = generated in the same manner as in Table 4

SMILES | PA-7 (MIC) [1, 3] | EC-1 (MIC) [2, 3] | PA-7 (MIC) [1] | EC-1 (MIC) [2]
CC(CCn1ccc(-c2ccc(F)c(F)c2)cc1=O)(C(=O)NO)S(C)(=O)=O (stereo not drawn) [Example 134, 4-[4-(3,4-difluorophenyl)-2-oxopyridin-1(2H)-yl]-N-hydroxy-2-methyl-2-(methylsulfonyl)butanamide] | 4 µg/mL | 4 µg/mL | – | –
C[C@@](CCn1ccc(-c2ccc(OCCN3CCOCC3)c(Cl)c2Cl)cc1=O)(C(=O)NO)S(C)(=O)=O [Example 304, (2R)-4-{4-[2,3-dichloro-4-(2-morpholin-4-ylethoxy)phenyl]-2-oxopyridin-1(2H)-yl}-N-hydroxy-2-methyl-2-(methylsulfonyl)butanamide] | – | – | 16 µg/mL | 4 µg/mL
CC(=O)c1ccccc1-c1ccn(CCC(C)(C(=O)NO)S(C)(=O)=O)c(=O)c1 (stereo not drawn) [Example 140, 4-[4-(2-acetylphenyl)-2-oxopyridin-1(2H)-yl]-N-hydroxy-2-methyl-2-(methylsulfonyl)butanamide] | > 64 µg/mL | > 64 µg/mL | – | –
CCOc1ncccc1-c1ccn(CCC(C)(C(=O)NO)S(C)(=O)=O)c(=O)c1 (stereo not drawn) [Example 205, 4-(2-ethoxy-2′-oxo-3,4′-bipyridin-1′(2′H)-yl)-N-hydroxy-2-methyl-2-(methylsulfonyl)butanamide] | – | – | > 64 µg/mL | > 64 µg/mL
C[C@@](CCn1ccc(-c2ccc(OCCC[C@@H](O)CO)cc2)cc1=O)(C(=O)NO)S(C)(=O)=O [Example 365, (2R)-4-[4-(4-{[(4R)-4,5-dihydroxypentyl]oxy}phenyl)-2-oxopyridin-1(2H)-yl]-N-hydroxy-2-methyl-2-(methylsulfonyl)butanamide] | – | – | 4 µg/mL | 4 µg/mL
C[C@@](CCn1ccc(-c2ccc(Oc3nc4ccccc4s3)cc2)cc1=O)(C(=O)NO)S(C)(=O)=O [Example 445] | – | – | 4 µg/mL | 0.25 µg/mL
Cn1c(=O)sc2cc(-c3ccn(CC[C@](C)(C(=O)NO)S(C)(=O)=O)c(=O)c3)ccc21 [Example 483] | – | – | 8 µg/mL | 8 µg/mL
CCOc1ccc(-c2ccn(CC[C@](C)(C(=O)NO)S(C)(=O)=O)c(=O)c2)cc1C#N [Example 479] | – | – | 16 µg/mL | 64 µg/mL
Cn1ccnc1-c1ccc(-c2ccn(CC[C@](C)(C(=O)NO)S(C)(=O)=O)c(=O)c2)cc1 [Example 363, (2R)-N-hydroxy-2-methyl-4-{4-[4-(1-methyl-1H-imidazol-2-yl)phenyl]-2-oxopyridin-1(2H)-yl}-2-(methylsulfonyl)butanamide] | – | – | 64 µg/mL | 32 µg/mL
CC(CCn1ccc(-c2ccc(S(N)(=O)=O)cc2)cc1=O)(C(=O)NO)S(C)(=O)=O (stereo not drawn) [Example 230, 4-{4-[4-(aminosulfonyl)phenyl]-2-oxopyridin-1(2H)-yl}-N-hydroxy-2-methyl-2-(methylsulfonyl)butanamide] | – | – | > 64 µg/mL | 64 µg/mL
C[C@@](CCn1ccc(-c2ccc(-n3nccn3)cc2F)cc1=O)(C(=O)NO)S(C)(=O)=O [Example 372] | – | – | 2 µg/mL | 0.06 µg/mL
C[C@@](CCn1ccc(-c2ccc(Oc3ccccc3C#N)cc2)cc1=O)(C(=O)NO)S(C)(=O)=O [Example 426, (2R)-4-{4-[4-(2-cyanophenoxy)phenyl]-2-oxopyridin-1(2H)-yl}-N-hydroxy-2-methyl-2-(methylsulfonyl)butanamide] | – | – | 1 µg/mL | 0.25 µg/mL
CC(C)Oc1ccc(-c2ccn(CC[C@](C)(C(=O)NO)S(C)(=O)=O)c(=O)c2)cc1 [Example 390, (2R)-N-hydroxy-4-[4-(4-isopropoxyphenyl)-2-oxopyridin-1(2H)-yl]-2-methyl-2-(methylsulfonyl)butanamide] | – | – | 0.5 µg/mL | 0.25 µg/mL
C[C@H](O)c1ccc2cc(-c3ccn(CC[C@](C)(C(=O)NO)S(C)(=O)=O)c(=O)c3)ccc2c1 [Example 360, (2R)-N-hydroxy-4-[4-{6-[(1S)-1-hydroxyethyl]-2-naphthyl}-2-oxopyridin-1(2H)-yl]-2-methyl-2-(methylsulfonyl)butanamide] | – | – | 1 µg/mL | 0.5 µg/mL
CC(CCn1ccc(-c2cnc3ccccc3c2)cc1=O)(C(=O)NO)S(C)(=O)=O (stereo not drawn) [Example 124, N-hydroxy-2-methyl-2-(methylsulfonyl)-4-(2-oxo-4-quinolin-3-ylpyridin-1(2H)-yl)butanamide] | 16 µg/mL | 16 µg/mL | – | –
Cc1cccc(-c2ccn(CCC(C)(C(=O)NO)S(C)(=O)=O)c(=O)c2)c1F (stereo not drawn) [Example 264, 4-[4-(2-fluoro-3-methylphenyl)-2-oxopyridin-1(2H)-yl]-N-hydroxy-2-methyl-2-(methylsulfonyl)butanamide] | – | – | 0.5 µg/mL | 0.5 µg/mL
Cc1c(-c2cccc(Cl)c2F)ccn(CC[C@](C)(C(=O)NO)S(C)(=O)=O)c1=O [Example 413, (2R)-4-[4-(3-chloro-2-fluorophenyl)-3-methyl-2-oxopyridin-1(2H)-yl]-N-hydroxy-2-methyl-2-(methylsulfonyl)butanamide] | – | – | 2 µg/mL | 2 µg/mL

SMILES | PA-7 (MIC) [1, 3] | EC-1 (MIC) [2, 3] | PA-7 (MIC) [1] | EC-1 (MIC) [2]
COc1ccc(-c2ccn(CCC(C)(C(=O)NO)S(C)(=O)=O)c(=O)c2)cc1F (stereo not drawn) [Example 180, 4-[4-(3-fluoro-4-methoxyphenyl)-2-oxopyridin-1(2H)-yl]-N-hydroxy-2-methyl-2-(methylsulfonyl)butanamide] | 8 µg/mL | 2 µg/mL | – | –
CC(CCn1ccc(-c2ccc(Oc3cccnc3)cc2)cc1=O)(C(=O)NO)S(C)(=O)=O (stereo not drawn) [Example 287, N-hydroxy-2-methyl-2-(methylsulfonyl)-4-{2-oxo-4-[4-(pyridin-3-yloxy)phenyl]pyridin-1(2H)-yl}butanamide] | – | – | 4 µg/mL | 0.5 µg/mL
CC(CCn1ccc(-c2cccc(-n3cccn3)c2)cc1=O)(C(=O)NO)S(C)(=O)=O (stereo not drawn) [Example 111, N-hydroxy-2-methyl-2-(methylsulfonyl)-4-{2-oxo-4-[3-(1H-pyrazol-1-yl)phenyl]pyridin-1(2H)-yl}butanamide] | > 64 µg/mL | > 64 µg/mL | – | –
Cc1c(-c2ccc(Cl)cc2F)ccn(CC[C@](C)(C(=O)NO)S(C)(=O)=O)c1=O [Example 394, (2R)-4-[4-(4-chloro-2-fluorophenyl)-3-methyl-2-oxopyridin-1(2H)-yl]-N-hydroxy-2-methyl-2-(methylsulfonyl)butanamide] | – | – | 1 µg/mL | 1 µg/mL
COc1ccc(-c2ccn(CCC(C)(C(=O)NO)S(C)(=O)=O)c(=O)c2)c(OC)c1 (stereo not drawn) [Example 161, 4-[4-(2,4-dimethoxyphenyl)-2-oxopyridin-1(2H)-yl]-N-hydroxy-2-methyl-2-(methylsulfonyl)butanamide] | 8 µg/mL | 8 µg/mL | – | –
Cc1ccc(N)cc1-c1ccn(CCC(C)(C(=O)NO)S(C)(=O)=O)c(=O)c1 (stereo not drawn) [Example 108, 4-[4-(5-amino-2-methylphenyl)-2-oxopyridin-1(2H)-yl]-N-hydroxy-2-methyl-2-(methylsulfonyl)butanamide] | > 64 µg/mL | > 64 µg/mL | – | –
CC(CCn1ccc(-c2cccc(Cl)c2Cl)cc1=O)(C(=O)NO)S(C)(=O)=O (stereo not drawn) [Example 163, 4-[4-(2,3-dichlorophenyl)-2-oxopyridin-1(2H)-yl]-N-hydroxy-2-methyl-2-(methylsulfonyl)butanamide] | 1 µg/mL | 0.5 µg/mL | – | –
CC(CCn1ccc(-c2cc(F)ccc2F)cc1=O)(C(=O)NO)S(C)(=O)=O (stereo not drawn) [Example 196, 4-[4-(2,5-difluorophenyl)-2-oxopyridin-1(2H)-yl]-N-hydroxy-2-methyl-2-(methylsulfonyl)butanamide] | – | – | 4 µg/mL | 8 µg/mL
COc1ccc(-c2ccn(CC[C@](C)(C(=O)NO)S(C)(=O)=O)c(=O)c2)cc1Cl [Example 334, (2R)-4-[4-(3-chloro-4-methoxyphenyl)-2-oxopyridin-1(2H)-yl]-N-hydroxy-2-methyl-2-(methylsulfonyl)butanamide] | – | – | 1 µg/mL | 8 µg/mL
CC(CCn1ccc(-c2cc3ccccc3[nH]2)cc1=O)(C(=O)NO)S(C)(=O)=O (stereo not drawn) [Example 91] | 16 µg/mL | 4 µg/mL | – | –
CC(CCn1ccc(-c2ccc(OCCO)c(F)c2)cc1=O)(C(=O)NO)S(C)(=O)=O (stereo not drawn) [Example 76, 4-{4-[3-fluoro-4-(2-hydroxyethoxy)phenyl]-2-oxopyridin-1(2H)-yl}-N-hydroxy-2-methyl-2-(methylsulfonyl)butanamide] | 32 µg/mL | 16 µg/mL | – | –
CC(CCn1ccc(-c2cc(Cl)c(OCCO)cc2Cl)cc1=O)(C(=O)NO)S(C)(=O)=O (stereo not drawn) [Example 244, 4-{4-[2,5-dichloro-4-(2-hydroxyethoxy)phenyl]-2-oxopyridin-1(2H)-yl}-N-hydroxy-2-methyl-2-(methylsulfonyl)butanamide] | – | – | > 64 µg/mL | 32 µg/mL
Cc1ccc2ccc(-c3ccn(CCC(C)(C(=O)NO)S(C)(=O)=O)c(=O)c3)cc2n1 (stereo not drawn) [Example 305, N-hydroxy-2-methyl-4-[4-(2-methylquinolin-7-yl)-2-oxopyridin-1(2H)-yl]-2-(methylsulfonyl)butanamide] | – | – | > 64 µg/mL | 16 µg/mL
CC(CCn1ccc(-c2ccc(F)c(Cl)c2)cc1=O)(C(=O)NO)S(C)(=O)=O (stereo not drawn) [Example 214] | – | – | 2 µg/mL | 1 µg/mL
CCCC(CCn1ccc(-c2ccccc2)cc1=O)(C(=O)NO)S(C)(=O)=O (stereo not drawn) [Example 294] | – | – | > 64 µg/mL | > 64 µg/mL
CC(CCn1ccc(-c2ccc(OCCCn3cncn3)c(Cl)c2)cc1=O)(C(=O)NO)S(C)(=O)=O (stereo not drawn) [Example 290, 4-[4-{3-chloro-4-[3-(1H-1,2,4-triazol-1-yl)propoxy]phenyl}-2-oxopyridin-1(2H)-yl]-N-hydroxy-2-methyl-2-(methylsulfonyl)butanamide] | – | – | 16 µg/mL | 16 µg/mL
